Assay results reported in a melting point compilation (Tetko et al.; mined from patent text by program, amines drawn as free bases though some values may be those of a salt).

A melting point of 153 to 155 °C was found for `CCCCc1ncc(C(=O)OC)c(=O)[nH]1` in this work. A melting point of 149 to 151 °C was found for `N#Cc1ncc(NCCO)nc1N1CCN(c2ccc(F)cc2)CC1` in this work. A melting point of 229 °C was found for `Cc1cc2cc(CN3CCC(C(=O)N(C)C)CC3)cnc2cc1NC(=O)c1ccc(-c2ccc(F)cc2)cc1` in this work. A melting point of 145 to 148 °C was found for `CN1C(=O)C(S)=C(S)C1=O` in this work. A melting point of 105 °C was found for `CC(C)CCNC(=O)c1ccc2c(c1)N(C(C)CN(C)C)c1ccccc1S2` (racemic) in this work. A melting point of 124 to 127 °C was found for `CCCCc1nc2cccc(C#N)c2n1Cc1ccccc1Cl` in this work. A melting point of 228 to 230 °C was found for `O=C(NCC12CC3CC(CC(C3)C1)C2)c1cc(-c2ccccc2C(=O)O)ccc1Cl` in this work. A melting point of 132 °C was found for `CCC1(C)C(=O)c2c(cc(OC)c(Cl)c2Cl)C1c1ccccc1` (centres undefined) in this work. A melting point of 130 to 131 °C was found for `COc1cc(OC)cc(C(=O)N2CCc3cc(OCc4ccccc4)c(OC)cc3C2)c1` in this work. A melting point of 151 to 153 °C was found for `Cc1cc(C(N)=O)c(NC(=O)CCC(F)(F)F)s1` in this work. A melting point of 147 to 148 °C was found for `CCCCn1c(=O)c(C(=O)OCC)c(O)c2ccccc21` in this work. A melting point of 207 to 210 °C was found for `Nc1cc(-c2ccncc2)cc2nc(-c3ccccc3)nn12` in this work. A melting point of 168 to 169 °C was found for `CN(N(C)S(C)(=O)=O)S(C)(=O)=O` in this work. A melting point of 164 to 166 °C was found for `CC(=O)Nc1nc(CCc2ccc(CN3CCNCC3)cc2)cs1` in this work. A melting point of 110 to 112 °C was found for `CC1Cc2ccc([N+](=O)[O-])cc2C=N1` (centres undefined) in this work. A melting point of 220 to 222 °C was found for `CC(C)(C)OC(=O)Nc1ccccc1NC(=O)c1ccc(C(=O)Nc2cccc(Nc3nc(-c4cccnc4)cs3)c2)cn1` in this work. A melting point of 144 °C was found for `COC(OC)C(CC(=O)O)C(C)(C)S(=O)(=O)c1ccc(C)cc1` (centres undefined) in this work. A melting point of 90 to 94 °C was found for `Nc1ccnn1-c1c(Cl)cc(C(F)(F)F)cc1Cl` in this work. A melting point of 61.5 to 62 °C was found for `O=C(c1ccc(OC(F)(F)F)cc1)c1ccc(C(F)(F)F)cc1` in this work. A melting point of 56 to 58 °C was found for `Cc1cccc2c1O[C@@H](CN1CCC(CNC(=O)c3cccnc3N)CC1)CO2` in this work. A melting point of 57 to 59 °C was found for `COC(=O)C(=O)c1ccc(OCCCCOc2ccccc2)cc1` in this work. A melting point of 86 to 88 °C was found for `COC(=O)Oc1c(C(=O)c2ccc(Cl)cc2Cl)c(C)nn1C` in this work. A melting point of 207 °C was found for `O=[N+]([O-])c1cc(C(F)(F)F)c(Cl)cc1NCP(=O)(O)O` in this work. A melting point of 40 to 41 °C was found for `COC(=O)Cc1ccc(C#N)cc1` in this work. A melting point of 81.5 to 82.5 °C was found for `CC1(C)OC[C@@H](N)[C@H](O)CO1` (relative stereo) in this work. A melting point of 221 to 222 °C was found for `COc1c(N2CCN(C)CC2)c(F)cc2c(=O)c(C(=O)O)cn(C3CC3)c12` in this work. A melting point of 204 to 207 °C was found for `CC(C)c1ccc2c(c1)C(=O)N(C)C(c1ccc(C(C)(C)C)cc1)C2C(=O)O` (centres undefined) in this work. A melting point of 80.5 to 82 °C was found for `Clc1ccc(OCc2ccc3ccccc3n2)cc1Cl` in this work. A melting point of 156 to 158 °C was found for `COc1ccccc1N1CCN(CCn2c(=O)c3sccc3n(C(C)=O)c2=O)CC1` in this work. A melting point of 138 to 139 °C was found for `COc1ccc2nc3c(cc2c1)c(Cl)nn3C` in this work. A melting point of 212 to 213 °C was found for `COc1c(NC(=O)Nc2ccc(Oc3cc(C)nc(C)n3)c3ccccc23)cc(C(F)(F)F)cc1NS(C)(=O)=O` in this work. A melting point of 120 to 122 °C was found for `O=C(NCCCl)Nc1ccncc1` in this work. For `CNc1ccc2n[nH]c(=O)n2n1`, the melting point was > 348 °C. A melting point of 172 to 174 °C was found for `O=C(Nc1ccc(F)c(NC(=S)Nc2cccc(C(F)(F)F)c2)c1)c1ccc(Cl)c(Cl)c1` in this work. A melting point of 214 to 216 °C was found for `Cc1ccc(C2=C(c3ccc(S(C)(=O)=O)cc3)CN(C3CC3)C2=O)cc1` in this work. A melting point of 241 to 247 °C was found for `CC12CC(O)CC1C1CCc3cc(O)ccc3C1C(c1ccccc1)C2` (centres undefined) in this work. A melting point of 131 to 133 °C was found for `Cc1ccc(S(=O)(=O)Oc2ccc3c4c(nn3CCNCCO)-c3cnccc3C(=O)c24)cc1` in this work. A melting point of 148 to 151 °C was found for `Cn1cc(C(=O)c2ccc3ccccc3c2)cc1C(=O)CCl` in this work. A melting point of 139 to 141 °C was found for `CCn1c(C)c(C(C)=O)c(N=Cc2ccccc2)c1-c1ccccc1` in this work. A melting point of 116 to 118 °C was found for `O=C1c2ccc(O)cc2C(=O)N1c1ccccc1` in this work. A melting point of 208 to 210 °C was found for `CC(C)(C)OC(=O)N1CCn2c(-c3ccccc3)cc(C(N)=O)c2C1` in this work. A melting point of 80 to 83 °C was found for `O=C(C=C(O)c1cccs1)C1CCN(Cc2ccccc2)CC1` in this work. A melting point of 162 to 163 °C was found for `CCOc1ccc(C2=NN(C(=O)c3cccc(N)c3)CCC2)cc1OCC` in this work. A melting point of 224 to 226 °C was found for `Nc1ccn([C@H]2C=C[C@@H](O)CC2)c(=O)n1` (racemic) in this work. A melting point of 103 to 106 °C was found for `O=c1oc(-c2ccccc2)cc(O)c1Cc1cccnc1SCc1ccccc1` in this work. A melting point of 137 to 140 °C was found for `CCCCc1nn(-c2cc(NC(=O)CC)ccc2Cl)c(=O)n1Cc1ccc(-c2ccccc2S(=O)(=O)NC(=O)OC(C)(C)C)cc1F` in this work. A melting point of 130 to 132 °C was found for `O=C1NCCc2c1c1cccc(F)c1n2COCc1ccccc1` in this work. A melting point of 121 to 123 °C was found for `COc1cc(C(=O)N(C(C)C)C2CCCCC2)ccc1Cn1c(-c2ccccc2Cl)nc2ncccc21` in this work. A melting point of 167 to 170 °C was found for `O=C(O)C(=O)c1ccc(OCC(=O)c2ccc3ccccc3c2)cc1` in this work.
